What was measured:
Format in all cases: cell-based, murine and human
Conditions in all cases: GAL4-PPAR LBD chimera
[1] = target: T1, PPAR-gamma (UniProt P37231); assay: PPAR-gamma transactivation assay (GAL4 chimera, luciferase reporter) in CV-1 cells
T1 sequence (P37231 1-505): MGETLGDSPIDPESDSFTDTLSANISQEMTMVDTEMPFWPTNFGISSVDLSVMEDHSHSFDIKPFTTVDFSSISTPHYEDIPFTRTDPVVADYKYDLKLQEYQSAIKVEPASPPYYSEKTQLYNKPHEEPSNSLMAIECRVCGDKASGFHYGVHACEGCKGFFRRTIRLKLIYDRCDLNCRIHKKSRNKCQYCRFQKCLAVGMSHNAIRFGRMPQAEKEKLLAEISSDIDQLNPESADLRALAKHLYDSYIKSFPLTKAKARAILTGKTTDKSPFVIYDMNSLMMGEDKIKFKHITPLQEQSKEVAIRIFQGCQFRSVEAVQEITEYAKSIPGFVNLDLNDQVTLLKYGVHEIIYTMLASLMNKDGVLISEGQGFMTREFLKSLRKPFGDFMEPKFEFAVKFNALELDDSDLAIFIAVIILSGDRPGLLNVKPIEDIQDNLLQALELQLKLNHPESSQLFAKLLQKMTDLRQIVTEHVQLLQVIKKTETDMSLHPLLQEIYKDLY
Method in brief: (§1)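 CV-1 cells transiently transfected with murine or human PPAR-alpha, -gamma or -delta ligand-binding domain fused to GAL4 DNA-binding domain plus a GAL4-site luciferase reporter. After replating in phenol-red-free DME with 5% delipidated calf serum, cells were exposed to compound 20-24 h; luciferase read-out gave EC50.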

[2] = target: T2, PPAR-delta (UniProt Q03181); assay: PPAR-delta transactivation assay (GAL4 chimera, luciferase reporter) in CV-1 cells
T2 sequence (Q03181 1-441): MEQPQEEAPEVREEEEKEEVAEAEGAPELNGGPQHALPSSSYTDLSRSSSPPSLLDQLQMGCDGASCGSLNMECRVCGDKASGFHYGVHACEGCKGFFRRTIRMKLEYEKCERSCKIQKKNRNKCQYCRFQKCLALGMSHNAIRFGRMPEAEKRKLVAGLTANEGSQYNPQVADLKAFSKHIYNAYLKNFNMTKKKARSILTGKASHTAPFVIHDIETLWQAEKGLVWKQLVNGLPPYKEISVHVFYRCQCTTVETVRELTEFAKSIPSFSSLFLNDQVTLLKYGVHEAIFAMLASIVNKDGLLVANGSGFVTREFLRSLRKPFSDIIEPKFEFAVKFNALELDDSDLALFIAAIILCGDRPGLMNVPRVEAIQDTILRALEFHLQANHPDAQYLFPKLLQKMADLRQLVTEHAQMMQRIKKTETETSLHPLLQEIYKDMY
Method in brief: as §1

[3] = target: T3, PPAR-alpha (UniProt Q07869); assay: PPAR-alpha transactivation assay (GAL4 chimera, luciferase reporter) in CV-1 cells
T3 sequence (Q07869 1-468): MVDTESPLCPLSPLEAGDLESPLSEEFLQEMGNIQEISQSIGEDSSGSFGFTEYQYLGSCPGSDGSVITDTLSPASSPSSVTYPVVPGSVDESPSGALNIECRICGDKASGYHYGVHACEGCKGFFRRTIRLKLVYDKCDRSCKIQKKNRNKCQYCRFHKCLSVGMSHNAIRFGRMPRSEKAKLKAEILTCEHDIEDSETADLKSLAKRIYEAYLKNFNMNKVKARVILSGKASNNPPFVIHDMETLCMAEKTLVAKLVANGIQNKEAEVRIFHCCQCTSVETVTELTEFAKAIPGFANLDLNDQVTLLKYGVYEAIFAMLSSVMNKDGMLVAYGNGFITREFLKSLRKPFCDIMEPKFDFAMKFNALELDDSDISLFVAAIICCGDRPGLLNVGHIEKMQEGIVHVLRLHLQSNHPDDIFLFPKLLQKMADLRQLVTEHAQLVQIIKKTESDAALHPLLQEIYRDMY
Method in brief: as §1

Compound	EC50 [1]	EC50 [2]	EC50 [3]
C[C@@H]1CN(c2ccc(Cl)c(Cl)c2)C[C@H](C)N1S(=O)(=O)c1ccc2c(c1)C(C(=O)O)CC2 (stereo partly drawn) [Example 49, 6-[4-(3,4-dichloro-phenyl)-2,6-cis-dimethyl-piperazine-1-sulfonyl]-indan-1-carboxylic acid]	5 to 100 µM	< 5 µM	< 5 µM
C[C@@H]1CN(c2ccc(C(F)(F)F)c(Cl)c2)C[C@H](C)N1S(=O)(=O)c1ccc2c(c1)C(C(=O)O)CC2 (stereo partly drawn) [Example 50, 6-[4-(3-Chloro-4-trifluoromethyl-phenyl)-cis-2,6-dimethyl-piperazine-1-sulfonyl]-indan-1-carboxylic acid]	5 to 100 µM	< 5 µM	5 to 100 µM
C[C@@H]1CN(c2ccc(OC(F)(F)F)cc2)C[C@H](C)N1S(=O)(=O)c1ccc2c(c1)C(C(=O)O)CC2 (stereo partly drawn) [Example 51, 6-[2,6-cis-dimethyl-4-(4-trifluoromethoxy-phenyl)-piperazine-1-sulfonyl]-indan-1-carboxylic acid]	5 to 100 µM	< 5 µM	< 5 µM
C[C@H]1CN(S(=O)(=O)c2ccc3c(c2)C(C(=O)O)CC3)CCN1c1ccc(Cl)c(Cl)c1 (stereo partly drawn) [Example 52, 6-[4-(3,4-dichloro-phenyl)-3-(S)-methyl-piperazine-1-sulfonyl]-indan-1-carboxylic acid]	< 5 µM	< 5 µM	< 5 µM
CCC1CN(c2ccc(OC(F)(F)F)cc2)CCN1S(=O)(=O)c1ccc2c(c1)C(C(=O)O)CC2 (stereo not drawn) [Example 57, 6-[2-ethyl-4-(4-trifluoromethoxy-phenyl)-piperazine-1-sulfonyl]-indan-1-carboxylic acid]	< 5 µM	< 5 µM	< 5 µM
CCC1CN(c2ccc(Cl)c(Cl)c2)CCN1S(=O)(=O)c1ccc2c(c1)C(C(=O)O)CC2 (stereo not drawn) [Example 58, 6-[4-(3,4-Dichloro-phenyl)-2-ethyl-piperazine-1-sulfonyl]-indan-1-carboxylic acid]	5 to 100 µM	< 5 µM	< 5 µM
C[C@H]1CN(c2ccc(Cl)c(Cl)c2)CCN1S(=O)(=O)c1ccc2c(c1)C(C(=O)O)CC2 (stereo partly drawn) [Example 61, 6-[4-(3,4-Dichloro-phenyl)-(S)-methyl-piperazine-1-sulfonyl]-indan-1-carboxylic acid]	< 5 µM	< 5 µM	< 5 µM
C[C@H]1CN(c2ccc(OC(F)(F)F)cc2)CCN1S(=O)(=O)c1ccc2c(c1)C(C(=O)O)CC2 (stereo partly drawn) [Example 62, 6-[2-(S)-Methyl-4-(4-trifluoromethoxy-phenyl)-piperazine-1-sulfonyl]-indan-1-carboxylic acid]	5 to 100 µM	< 5 µM	< 5 µM
C[C@H]1CN(c2ccc(C(F)(F)F)cn2)C[C@H](C)N1S(=O)(=O)c1ccc2c(c1)C(C(=O)O)CC2 (stereo partly drawn) [Example 68, 6-[trans-2,6-(S,S)-dimethyl-4-(5-trifluoromethyl-pyrdin-2-yl)-piperazine-1-sulfonyl]-indan-1-carboxylic acid]	< 5 µM	< 5 µM	< 5 µM

Next, values leading:

EC50 [1]	EC50 [2]	EC50 [3]	Compound
< 5 µM	< 5 µM	< 5 µM	O=C(O)Cc1csc2ccc(S(=O)(=O)N3CCN(c4ccc(C(F)(F)F)cc4F)CC3)cc12 [Example 47, {5-[4-(2-fluoro-4-trifluoromethyl-phenyl)-piperazine-1-sulfonyl]-benzo[b]thiophen-3-yl}-acetic acid]
< 5 µM	< 5 µM	< 5 µM	O=C(O)Cc1csc2ccc(S(=O)(=O)N3CCN(c4ccc(C(F)(F)F)c(F)c4)CC3)cc12 [Example 48, {5-[4-(3-fluoro-4-trifluoromethyl-phenyl)-piperazine-1-sulfonyl]-benzo[b]thiophen-3-yl}-acetic acid]
< 5 µM	< 5 µM	< 5 µM	C[C@H]1CN(S(=O)(=O)c2ccc3c(c2)C(C(=O)O)CC3)CCN1c1ccc(OC(F)(F)F)cc1 (stereo partly drawn) [Example 53, 6-[3-(S)-methyl-4-(4-trifluoromethoxy-phenyl)-piperazine-1-sulfonyl]-indan-1-carboxylic acid]
< 5 µM	< 5 µM	< 5 µM	C[C@H]1CN(S(=O)(=O)c2ccc3c(c2)C(C(=O)O)CC3)CCN1c1ccc(C(F)(F)F)c(F)c1 (stereo partly drawn) [Example 54, 6-[4-(3-Fluoro-4-trifluoromethyl-phenyl)-3-(S)-Methyl-piperazine-1-sulfonyl]-indan-1-carboxylic acid]
< 5 µM	< 5 µM	< 5 µM	C[C@H]1CN(S(=O)(=O)c2ccc3c(c2)C(C(=O)O)CC3)CCN1c1ccc(C(F)(F)F)cn1 (stereo partly drawn) [Example 55]
< 5 µM	< 5 µM	< 5 µM	CCC1CN(c2ccc(C(F)(F)F)c(Cl)c2)CCN1S(=O)(=O)c1ccc2c(c1)C(C(=O)O)CC2 (stereo not drawn) [Example 56, 6-[4-(3-chloro-4-trifluoromethyl-phenyl)-2-ethyl-piperazine-1-sulfonyl]-indan-1carboxylic acid]
5 to 100 µM	< 5 µM	< 5 µM	CCC1CN(c2ccc(C(F)(F)F)c(F)c2)CCN1S(=O)(=O)c1ccc2c(c1)C(C(=O)O)CC2 (stereo not drawn) [Example 59, 6-[2-Ethyl-4-(3-fluoro-4-trifluoromethyl-phenyl)-piperazine-1-sulfonyl]-indan-1-carboxylic acid]
5 to 100 µM	< 5 µM	< 5 µM	CCC1CN(c2ccc(C(F)(F)F)cc2F)CCN1S(=O)(=O)c1ccc2c(c1)C(C(=O)O)CC2 (stereo not drawn) [Example 60, 6-[2-Ethyl-4-(2-fluoro-4-trifluoromethyl-phenyl)-piperazine-1-sulfonyl]-indan-1-carboxylic acid]
< 5 µM	< 5 µM	< 5 µM	C[C@H]1CN(c2ccc(C(F)(F)F)c(F)c2)CCN1S(=O)(=O)c1ccc2c(c1)C(C(=O)O)CC2 (stereo partly drawn) [Example 63, 6-[4-(3-Fluoro-4-trifluoromethyl-phenyl)-2-(S)-methyl-piperazine-1-sulfonyl]-indan-1-carboxylic acid]
< 5 µM	< 5 µM	< 5 µM	CCC1CN(S(=O)(=O)c2ccc3c(c2)C(C(=O)O)CC3)CCN1c1ccc(C(F)(F)F)cn1 (stereo not drawn) [Example 64, 6-[3-Ethyl-4-(5-trifluoromethyl-pyrdin-2-yl)-piperazine-1-sulfonyl]-indan-1-carboxylic acid]
< 5 µM	< 5 µM	< 5 µM	C[C@@H]1CN(S(=O)(=O)c2ccc3c(c2)C(C(=O)O)CC3)C[C@H](C)N1c1ccc(C(F)(F)F)cn1 (stereo partly drawn) [Example 65, 6-[cis-3,5-dimethyl-4-(5-trifluoromethyl-pyrdin-2-yl)-piperazine-1-sulfonyl]-indan-1-carboxylic acid]
5 to 100 µM	< 5 µM	< 5 µM	O=C(O)C1CCc2ccc(S(=O)(=O)N3CC=C(c4ccc(C(F)(F)F)cn4)CC3)cc21 (stereo not drawn) [Example 66, 6-(5-Trifluoromethyl-3,6-dihydro-2H-|2,4|bipyridinyl-1-sulfonyl)-indan-1-carboxylic acid]
< 5 µM	< 5 µM	< 5 µM	O=C(O)C1CCc2ccc(S(=O)(=O)N3CCCN(c4ccc(C(F)(F)F)cn4)CC3)cc21 (stereo not drawn) [Example 67, 6-[4-(5-trifluoromethyl-pyridin-2-yl)-[1,4]diazepane-1-sulfonyl]-indan-1-carboxylic acid]
< 5 µM	< 5 µM	< 5 µM	C[C@H]1CN(S(=O)(=O)c2ccc3c(c2)C(C(=O)O)CC3)C[C@H](C)N1c1ccc(C(F)(F)F)cn1 (stereo partly drawn) [Example 69, 6-[trans-3,5-(S,S)-dimethyl-4-(5-trifluoromethyl-pyrdin-2-yl)-piperazine-1-sulfonyl]-indan-1-carboxylic acid]
